Molecules are shown by their SMILES.

BACE, sequence (P56817 46-501): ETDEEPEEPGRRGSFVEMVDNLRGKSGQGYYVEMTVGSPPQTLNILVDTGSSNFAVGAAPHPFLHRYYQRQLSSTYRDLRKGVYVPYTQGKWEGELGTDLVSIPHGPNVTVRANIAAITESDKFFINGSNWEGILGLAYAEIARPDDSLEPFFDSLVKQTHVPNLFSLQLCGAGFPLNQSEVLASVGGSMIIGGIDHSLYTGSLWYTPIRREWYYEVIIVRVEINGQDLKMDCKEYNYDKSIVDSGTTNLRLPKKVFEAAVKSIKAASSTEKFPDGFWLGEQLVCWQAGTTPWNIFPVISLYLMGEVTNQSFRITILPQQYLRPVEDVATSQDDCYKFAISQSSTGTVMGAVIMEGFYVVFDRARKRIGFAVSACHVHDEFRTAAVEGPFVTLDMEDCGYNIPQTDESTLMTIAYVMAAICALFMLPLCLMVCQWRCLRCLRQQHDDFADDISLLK

The target in the experiment is BACE (Homo sapiens, UniProt P56817). In words: Ki Determination for the Inhibition of BACE (FS-1 peptide fluorescence cleavage assay). It is filed as biochemical. To be noted: apparent Ki; 50 nM BACE, 10 μM FS-1 substrate, 0.1M sodium acetate pH 4.5. In a few lines:
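Human BACE (50 nM) was preincubated 15 min at room temperature with compound (2% DMSO) in 0.1 M sodium acetate pH 4.5, then 10 μM FS-1 peptide was added. Cleavage was followed by fluorescence (ex 355/em 495 nm), and apparent Ki came from fitting to the integrated competitive tight-binding inhibition equation.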
As for `FC(F)(F)c1ccccc1OCc1cc(C2=CCNCC2)c(COc2ccccc2C(F)(F)F)cc1Br` [Compound 333, 4-[4-Bromo-2,5-bis-(2-trifluoromethyl-phenoxymethyl)-phenyl]-1,2,3,6-tetrahydro-pyridine], the Ki is less than 3 µM.
As for `O=C(Nc1cc(C(F)(F)F)ccc1N1CCNCC1)Oc1cccc2ccccc12` [Compound 150, (2-Piperazin-1-yl-5-trifluoromethyl-phenyl)-carbamic acid naphthalen-1-yl ester], the figure is 3 to 30 µM; as for `O=C(Nc1cc(C(F)(F)F)ccc1N1CCNCC1)c1nccc2ccccc12` [Compound 102, Isoquinoline-1-carboxylic acid (2-piperazin-1-yl-5-trifluoromethyl-phenyl)-amide], 3 to 30 µM.
As for `COc1ccc(-c2ccc(N3CCNCC3)c(NC(=O)c3cccc4ccccc34)c2)cc1` [Compound 120, Naphthalene-1-carboxylic acid (4′-methoxy-4-piperazin-1-yl-biphenyl-3-yl)-amide], the figure is 3 to 30 µM; as for `O=C(Nc1cc(F)c(-c2ccc(C(F)(F)F)cc2)cc1N1CCNCC1)c1cccc2ccccc12` [Compound 159, Naphthalene-1-carboxylic acid (2-fluoro-5-piperazin-1-yl-4′-trifluoromethyl-biphenyl-4-yl)-amide], less than 3 µM.
With `FC(F)(F)c1ccccc1OCc1cc(-c2ccco2)c(COc2ccccc2C(F)(F)F)cc1C1=CCNCC1` [Compound 346, 4-[4-Furan-2-yl-2,5-bis-(2-trifluoromethyl-phenoxymethyl)-phenyl]-1,2,3,6-tetrahydro-pyridine], the Ki is less than 3 µM.
As for `FC(F)(F)c1ccccc1OCc1cc(-c2cc3ccccc3o2)c(COc2ccccc2C(F)(F)F)cc1C1=CCNCC1` [Compound 357, 4-[4-Benzofuran-2-yl-2,5-bis-(2-trifluoromethyl-phenoxymethyl)-phenyl]-1,2,3,6-tetrahydro-pyridine], the figure is less than 3 µM; as for `O=S(=O)(Nc1cc(C(F)(F)F)ccc1N1CCNCC1)c1cccc2ccccc12` [Compound 135, Naphthalene-1-sulfonic acid (2-piperazin-1-yl-5-trifluoromethyl-phenyl)-amide], more than 30 µM; as for `COc1cccc(-c2ccc(N3CCNCC3)c(NC(=O)c3cccc4ccccc34)c2)c1` [Compound 119, Naphthalene-1-carboxylic acid (3′-methoxy-4-piperazin-1-yl-biphenyl-3-yl)-amide], more than 30 µM.
Turning to `O=C(NCC1CNCCC1c1ccc(COc2ccccc2C(F)(F)F)cc1)Nc1ccc2ccccc2c1` (stereo not shown) [Compound 232, 1-Naphthalen-2-yl-3-{4-[4-(2-trifluoromethyl-phenoxymethyl)-phenyl]-piperidin-3-ylmethyl}-urea], the Ki was less than 3 µM.
As for `O=C(Nc1ccc2ccccc2c1)C1CNCCN1C(=O)c1cccc(COc2ccccc2C(F)(F)F)c1` (stereo not shown) [Compound 206, 1-[3-(2-Trifluoromethyl-phenoxymethyl)-benzoyl]-piperazine-2-carboxylic acid naphthalen-2-ylamide], the figure is more than 30 µM; as for `O=C(Nc1cc(Oc2ccccc2)ccc1N1CCNCC1)c1cccc2ccccc12` [Compound 132, Naphthalene-1-carboxylic acid (5-phenoxy-2-piperazin-1-yl-phenyl)-amide], 3 to 30 µM; as for `OCc1cc(C2=CCNCC2)c(COc2ccccc2C(F)(F)F)cc1-c1ccoc1` [Compound 387, [2-Furan-3-yl-5-(1,2,3,6-tetrahydro-pyridin-4-yl)-4-(2-trifluoromethyl-phenoxymethyl)-phenyl]-methanol], 3 to 30 µM.
As for `O=C(Nc1cc(C(F)(F)F)ccc1N1CCNCC1)c1ccc2ccccc2c1` [Compound 113, Naphthalene-2-carboxylic acid (2-piperazin-1-yl-5-trifluoromethyl-phenyl)-amide], the figure is 3 to 30 µM.
Take `O=c1cc(-c2ccccc2)nc(C2CCNCC2)n1Cc1ccccc1C(F)(F)F` [Compound 214, 6-Phenyl-2-piperidin-4-yl-3-(2-trifluoromethyl-benzyl)-3H-pyrimidin-4-one]: the Ki was in the range of 3 to 30 µM.
`O=C(NCC1CNCCC1c1ccc(COc2ccccc2C(F)(F)F)cc1)c1ccc2ccccc2c1` (stereo not shown) [Compound 222, Naphthalene-2-carboxylic acid {4-[4-(2-trifluoromethyl-phenoxymethyl)-phenyl]-piperidin-3-ylmethyl}-amide]: the Ki lay in the range of 3 to 30 µM.
The same measure for `O=[N+]([O-])c1cccc(-c2cc(COc3ccccc3C(F)(F)F)c(C3=CCNCC3)cc2COc2ccccc2C(F)(F)F)c1` [Compound 353, 4-[3′-Nitro-2,5-bis-(2-trifluoromethyl-phenoxymethyl)-biphenyl-4-yl]-1,2,3,6-tetrahydro-pyridine]: less than 3 µM.
The same measure for `O=C(Nc1ccccc1)C1CNCCC1c1ccc(COc2ccccc2C(F)(F)F)cc1` (stereo not shown) [Compound 204]: more than 30 µM; for `COC(=O)c1cc(C2=CCNCC2)c(COc2ccccc2C(F)(F)F)cc1-c1ccoc1` [Compound 383, 2-Furan-3-yl-5-(1,2,3,6-tetrahydro-pyridin-4-yl)-4-(2-trifluoromethyl-phenoxymethyl)-benzoic acid methyl ester]: 3 to 30 µM.

For the origin of these results see US20030095958A1, “Inhibitors of bace” (priority 2001, published 2003).
